# Reference: ChEMBL document CHEMBL3046669, “Insecticide resistance of the oriental fruit fly, Bactrocera dorsalis (Hendel) (Diptera: Tephritidae), in mainland China” (2011)
# What was measured:
# Type in all cases: functional
# Bactrocera dorsalis [1] = experiment: Insecticidal activity against adult Bactrocera dorsalis QY07 assessed as mortality after 24 hr; conditions: QY07, 24 h
# Bactrocera dorsalis [2] = experiment: Insecticidal activity against adult Bactrocera dorsalis HY07 assessed as mortality after 24 hr; conditions: HY07, 24 h
# Bactrocera dorsalis [3] = experiment: Insecticidal activity against adult Bactrocera dorsalis HK07 assessed as mortality after 24 hr; conditions: HK07, 24 h
# Bactrocera dorsalis [4] = experiment: Insecticidal activity against adult Bactrocera dorsalis YJ07 assessed as mortality after 24 hr; conditions: YJ07, 24 h
# Bactrocera dorsalis [5] = experiment: Insecticidal activity against adult Bactrocera dorsalis NN07 assessed as mortality after 24 hr; conditions: NN07, 24 h
# Bactrocera dorsalis [6] = experiment: Insecticidal activity against adult Bactrocera dorsalis CS07 assessed as mortality after 24 hr; conditions: CS07, 24 h
# Bactrocera dorsalis [7] = experiment: Insecticidal activity against adult Bactrocera dorsalis FZ07 assessed as mortality after 24 hr; conditions: FZ07, 24 h
# Bactrocera dorsalis [8] = experiment: Insecticidal activity against adult Bactrocera dorsalis WX07 assessed as mortality after 24 hr; conditions: WX07, 24 h
# Bactrocera dorsalis [9] = experiment: Insecticidal activity against adult Bactrocera dorsalis assessed as mortality after 24 hr
# Bactrocera dorsalis [10] = experiment: Resistance ratio of LC50 for adult Bactrocera dorsalis T-R-48 to LC50 for adult Bactrocera dorsalis
# Bactrocera dorsalis [11] = experiment: Resistance ratio of LC50 for adult Bactrocera dorsalis T-R-45 to LC50 for adult Bactrocera dorsalis
# Bactrocera dorsalis [12] = experiment: Insecticidal activity against adult Bactrocera dorsalis T-R-48 assessed as mortality
# Bactrocera dorsalis [13] = experiment: Insecticidal activity against adult Bactrocera dorsalis T-R-45 assessed as mortality
# Bactrocera dorsalis [14] = experiment: Resistance ratio of LC50 for adult Bactrocera dorsalis HZ08 to LC50 for adult Bactrocera dorsalis after 24 hr
# Bactrocera dorsalis [15] = experiment: Resistance ratio of LC50 for adult Bactrocera dorsalis CH08 to LC50 for adult Bactrocera dorsalis after 24 hr
# Bactrocera dorsalis [16] = experiment: Resistance ratio of LC50 for adult Bactrocera dorsalis GZ08 to LC50 for adult Bactrocera dorsalis after 24 hr
# Bactrocera dorsalis [17] = experiment: Resistance ratio of LC50 for adult Bactrocera dorsalis QY08 to LC50 for adult Bactrocera dorsalis after 24 hr
# Bactrocera dorsalis [18] = experiment: Resistance ratio of LC50 for adult Bactrocera dorsalis MM08 to LC50 for adult Bactrocera dorsalis after 24 hr
# Bactrocera dorsalis [19] = experiment: Resistance ratio of LC50 for adult Bactrocera dorsalis HY08 to LC50 for adult Bactrocera dorsalis after 24 hr
# Bactrocera dorsalis [20] = experiment: Resistance ratio of LC50 for adult Bactrocera dorsalis NN08 to LC50 for adult Bactrocera dorsalis after 24 hr
# Bactrocera dorsalis [21] = experiment: Resistance ratio of LC50 for adult Bactrocera dorsalis HK08 to LC50 for adult Bactrocera dorsalis after 24 hr
# Bactrocera dorsalis [22] = experiment: Resistance ratio of LC50 for adult Bactrocera dorsalis FZ08 to LC50 for adult Bactrocera dorsalis after 24 hr
# Bactrocera dorsalis [23] = experiment: Resistance ratio of LC50 for adult Bactrocera dorsalis YJ08 to LC50 for adult Bactrocera dorsalis after 24 hr
# Bactrocera dorsalis [24] = experiment: Resistance ratio of LC50 for adult Bactrocera dorsalis WX08 to LC50 for adult Bactrocera dorsalis after 24 hr
# Bactrocera dorsalis [25] = experiment: Resistance ratio of LC50 for adult Bactrocera dorsalis NN07 to LC50 for adult Bactrocera dorsalis after 24 hr
# Bactrocera dorsalis [26] = experiment: Resistance ratio of LC50 for adult Bactrocera dorsalis HK07 to LC50 for adult Bactrocera dorsalis after 24 hr
# Bactrocera dorsalis [27] = experiment: Resistance ratio of LC50 for adult Bactrocera dorsalis FZ07 to LC50 for adult Bactrocera dorsalis after 24 hr
# Bactrocera dorsalis [28] = experiment: Resistance ratio of LC50 for adult Bactrocera dorsalis YJ07 to LC50 for adult Bactrocera dorsalis after 24 hr
# Bactrocera dorsalis [29] = experiment: Resistance ratio of LC50 for adult Bactrocera dorsalis WX07 to LC50 for adult Bactrocera dorsalis after 24 hr
# Bactrocera dorsalis [30] = experiment: Resistance ratio of LC50 for adult Bactrocera dorsalis CS07 to LC50 for adult Bactrocera dorsalis after 24 hr
# Bactrocera dorsalis [31] = experiment: Resistance ratio of LC50 for adult Bactrocera dorsalis CS08 to LC50 for adult Bactrocera dorsalis after 24 hr
# Bactrocera dorsalis [32] = experiment: Resistance ratio of LC50 for adult Bactrocera dorsalis HZ07 to LC50 for adult Bactrocera dorsalis after 24 hr
# Bactrocera dorsalis [33] = experiment: Resistance ratio of LC50 for adult Bactrocera dorsalis ZJ07 to LC50 for adult Bactrocera dorsalis after 24 hr
# Bactrocera dorsalis [34] = experiment: Resistance ratio of LC50 for adult Bactrocera dorsalis CH07 to LC50 for adult Bactrocera dorsalis after 24 hr
# Bactrocera dorsalis [35] = experiment: Resistance ratio of LC50 for adult Bactrocera dorsalis GZ07 to LC50 for adult Bactrocera dorsalis after 24 hr
# Bactrocera dorsalis [36] = experiment: Resistance ratio of LC50 for adult Bactrocera dorsalis MM07 to LC50 for adult Bactrocera dorsalis after 24 hr
# Bactrocera dorsalis [37] = experiment: Resistance ratio of LC50 for adult Bactrocera dorsalis HY07 to LC50 for adult Bactrocera dorsalis after 24 hr
# Bactrocera dorsalis [38] = experiment: Resistance ratio of LC50 for adult Bactrocera dorsalis QY07 to LC50 for adult Bactrocera dorsalis after 24 hr
# Bactrocera dorsalis [39] = experiment: Insecticidal activity against adult Bactrocera dorsalis GZ08 assessed as mortality after 24 hr; conditions: GZ08, 24 h
# Bactrocera dorsalis [40] = experiment: Insecticidal activity against adult Bactrocera dorsalis HZ08 assessed as mortality after 24 hr; conditions: HZ08, 24 h
# Bactrocera dorsalis [41] = experiment: Insecticidal activity against adult Bactrocera dorsalis CH08 assessed as mortality after 24 hr; conditions: CH08, 24 h
# Bactrocera dorsalis [42] = experiment: Insecticidal activity against adult Bactrocera dorsalis QY08 assessed as mortality after 24 hr; conditions: QY08, 24 h
# Bactrocera dorsalis [43] = experiment: Insecticidal activity against adult Bactrocera dorsalis MM08 assessed as mortality after 24 hr; conditions: MM08, 24 h
# Bactrocera dorsalis [44] = experiment: Insecticidal activity against adult Bactrocera dorsalis HK08 assessed as mortality after 24 hr; conditions: HK08, 24 h
# Bactrocera dorsalis [45] = experiment: Insecticidal activity against adult Bactrocera dorsalis HY08 assessed as mortality after 24 hr; conditions: HY08, 24 h
# Bactrocera dorsalis [46] = experiment: Insecticidal activity against adult Bactrocera dorsalis YJ08 assessed as mortality after 24 hr; conditions: YJ08, 24 h
# Bactrocera dorsalis [47] = experiment: Insecticidal activity against adult Bactrocera dorsalis NN08 assessed as mortality after 24 hr; conditions: NN08, 24 h
# Bactrocera dorsalis [48] = experiment: Insecticidal activity against adult Bactrocera dorsalis FZ08 assessed as mortality after 24 hr; conditions: FZ08, 24 h
# Bactrocera dorsalis [49] = experiment: Insecticidal activity against adult Bactrocera dorsalis WX08 assessed as mortality after 24 hr; conditions: WX08, 24 h
# Bactrocera dorsalis [50] = experiment: Insecticidal activity against adult Bactrocera dorsalis CS08 assessed as mortality after 24 hr; conditions: CS08, 24 h
# Bactrocera dorsalis [51] = experiment: Insecticidal activity against adult Bactrocera dorsalis HZ07 assessed as mortality after 24 hr; conditions: HZ07, 24 h
# Bactrocera dorsalis [52] = experiment: Insecticidal activity against adult Bactrocera dorsalis ZJ07 assessed as mortality after 24 hr; conditions: ZJ07, 24 h
# Bactrocera dorsalis [53] = experiment: Insecticidal activity against adult Bactrocera dorsalis GZ07 assessed as mortality after 24 hr; conditions: GZ07, 24 h
# Bactrocera dorsalis [54] = experiment: Insecticidal activity against adult Bactrocera dorsalis MM07 assessed as mortality after 24 hr; conditions: MM07, 24 h
# Bactrocera dorsalis [55] = experiment: Insecticidal activity against adult Bactrocera dorsalis CH07 assessed as mortality after 24 hr; conditions: CH07, 24 h
compound,measurement,setting,value
COP(=O)(OC)C(O)C(Cl)(Cl)Cl (stereo not drawn) [TRICHLORFON],LC50,Bactrocera dorsalis [1],18.5 µg/mL
same,LC50,Bactrocera dorsalis [2],41.4 µg/mL
same,LC50,Bactrocera dorsalis [3],14.1 µg/mL
same,LC50,Bactrocera dorsalis [4],8.43 µg/mL
same,LC50,Bactrocera dorsalis [5],25.1 µg/mL
same,LC50,Bactrocera dorsalis [6],27.2 µg/mL
same,LC50,Bactrocera dorsalis [7],19.8 µg/mL
same,LC50,Bactrocera dorsalis [8],31.2 µg/mL
same,LC90,Bactrocera dorsalis [9],2.64 µg/mL
same,LC50,"Bactrocera dorsalis [9]; Bactrocera dorsalis, 24 h",1.61 µg/mL
same,RatioLC50,Bactrocera dorsalis [10],71.58
same,RatioLC50,Bactrocera dorsalis [11],58.34
same,LC90,Bactrocera dorsalis [12],635.27 µg/mL
same,LC50,"Bactrocera dorsalis [12]; Bactrocera dorsalis, T-R-48",115 µg/mL
same,LC90,Bactrocera dorsalis [13],322.86 µg/mL
same,LC50,"Bactrocera dorsalis [13]; Bactrocera dorsalis, T-R-45",93.9 µg/mL
same,RatioLC50,Bactrocera dorsalis [14],1.51
same,RatioLC50,Bactrocera dorsalis [15],17.91
same,RatioLC50,Bactrocera dorsalis [16],8.87
same,RatioLC50,Bactrocera dorsalis [17],7.34
same,RatioLC50,Bactrocera dorsalis [18],70.45
same,RatioLC50,Bactrocera dorsalis [19],21.19
same,RatioLC50,Bactrocera dorsalis [20],7.39
same,RatioLC50,Bactrocera dorsalis [21],1.37
same,RatioLC50,Bactrocera dorsalis [22],20.2
same,RatioLC50,Bactrocera dorsalis [23],5.22
same,RatioLC50,Bactrocera dorsalis [24],14.13
same,RatioLC50,Bactrocera dorsalis [25],15.62
same,RatioLC50,Bactrocera dorsalis [26],8.77
same,RatioLC50,Bactrocera dorsalis [27],12.32
same,RatioLC50,Bactrocera dorsalis [28],5.25
same,RatioLC50,Bactrocera dorsalis [29],19.46
same,RatioLC50,Bactrocera dorsalis [30],16.96
same,RatioLC50,Bactrocera dorsalis [31],17.56
same,RatioLC50,Bactrocera dorsalis [32],16.72
same,RatioLC50,Bactrocera dorsalis [33],18.51
same,RatioLC50,Bactrocera dorsalis [34],12.71
same,RatioLC50,Bactrocera dorsalis [35],19.8
same,RatioLC50,Bactrocera dorsalis [36],17.78
same,RatioLC50,Bactrocera dorsalis [37],25.79
same,RatioLC50,Bactrocera dorsalis [38],11.53
same,LC50,Bactrocera dorsalis [39],14.2 µg/mL
same,LC50,Bactrocera dorsalis [40],2.43 µg/mL
same,LC50,Bactrocera dorsalis [41],28.7 µg/mL
same,LC50,Bactrocera dorsalis [42],11.8 µg/mL
same,LC50,Bactrocera dorsalis [43],113 µg/mL
same,LC50,Bactrocera dorsalis [44],2.21 µg/mL
same,LC50,Bactrocera dorsalis [45],34 µg/mL
same,LC50,Bactrocera dorsalis [46],8.38 µg/mL
same,LC50,Bactrocera dorsalis [47],11.9 µg/mL
same,LC50,Bactrocera dorsalis [48],32.4 µg/mL
same,LC50,Bactrocera dorsalis [49],22.7 µg/mL
same,LC50,Bactrocera dorsalis [50],28.2 µg/mL
same,LC50,Bactrocera dorsalis [51],26.8 µg/mL
same,LC50,Bactrocera dorsalis [52],29.7 µg/mL
same,LC50,Bactrocera dorsalis [53],31.8 µg/mL
same,LC50,Bactrocera dorsalis [54],28.5 µg/mL
same,LC50,Bactrocera dorsalis [55],20.4 µg/mL
